Data taken from patent publication US9593123B2, “Triazolo[4,5-D]pyrimidine derivatives” (Hoffmann-La Roche Inc., priority 2013, dated 2017).

Key:
[1] = molecular target: human CB1 receptor (Homo sapiens (Human), UniProt P21554); experiment: cAMP assay, CHO cells expressing human CB1 receptors; type: cell-based; conditions: functional cAMP assay, read-out: CB1 hcAMP EC50
Protocol: (§1) CHO cells expressing human CB1 or CB2 receptors are seeded 17-24 hours prior to the experiment 50.000 cells per well in a black 96 well plate with flat clear bottom (Corning Costar #3904) in DMEM (Invitrogen No. 31331), 1×HT supplement, with 10% fetal calf serum and incubated at 5% CO2 and 37° C. in a humidified incubator. The growth medium was exchanged with Krebs Ringer Bicarbonate buffer with 1 mM IBMX and incubated at 30° C. for 30 min. Compounds were added to a final assay volume of 100 μl and incubated for 30 min at 30° C. Using the cAMP-Nano-TRF detection kit the assay (Roche Diagnostics) was stopped by the addition of 50 μl lysis reagent (Tris, NaCl, 1.5% Triton X100, 2.5% NP40, 10% NaN3) and 50 μl detection solutions (20 μM mAb Alexa700-cAMP 1:1, and 48 μM Ruthenium-2-AHA-cAMP) and shaken for 2 h at room temperature. The time-resolved energy transfer is measured by a TRF reader (Evotec Technologies GmbH), equipped with a ND:YAG laser as excitation source. The plate is measured twice with the excitation at 355 nm and at the emission with a delay of 100 ns and a gate of 100 ns, total exposure time 10 s at 730 (bandwidth 30 nm) or 645 nm (bandwidth 75 nm), respectively. The FRET signal is calculated as follows: FRET=T730-Alexa730-P(T645-B645) with P=Ru730-B730/Ru645-B645, where T730 is the test well measured at 730 nM, T645 is the test well measured at 645 nm, B730 and B645 are the buffer controls at 730 nm and 645 nm, respectively. cAMP content is determined from the function of a standard curve spanning from 10 μM to 0.13 nM cAMP.
(§2) EC50 values were determined using Activity Base analysis (ID Business Solution, Limited). The EC50 values for a wide range of cannabinoid agonists generated from this assay were in agreement with the values published in the scientific literature.

[2] = molecular target: human CB2 receptor (Homo sapiens (Human), UniProt P34972); experiment: cAMP assay, CHO cells expressing human CB2 receptors; type: cell-based; conditions: functional cAMP assay, read-out: CB2 hcAMP EC50
Protocol: as §1, §2

human CB1 receptor, sequence (P21554 whole entry): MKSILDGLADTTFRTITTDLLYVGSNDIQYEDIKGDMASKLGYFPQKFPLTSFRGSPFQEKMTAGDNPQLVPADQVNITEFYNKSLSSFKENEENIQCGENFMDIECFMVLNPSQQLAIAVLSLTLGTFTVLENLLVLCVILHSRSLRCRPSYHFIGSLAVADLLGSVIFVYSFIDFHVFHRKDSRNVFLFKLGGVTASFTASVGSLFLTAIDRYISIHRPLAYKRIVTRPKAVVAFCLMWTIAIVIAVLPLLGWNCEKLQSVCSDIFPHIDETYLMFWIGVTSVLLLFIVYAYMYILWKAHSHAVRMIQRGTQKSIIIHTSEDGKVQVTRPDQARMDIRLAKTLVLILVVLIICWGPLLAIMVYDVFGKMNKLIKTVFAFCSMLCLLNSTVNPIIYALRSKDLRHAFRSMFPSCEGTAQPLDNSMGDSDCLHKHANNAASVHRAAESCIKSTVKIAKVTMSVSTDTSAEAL
human CB2 receptor, sequence (P34972 whole entry): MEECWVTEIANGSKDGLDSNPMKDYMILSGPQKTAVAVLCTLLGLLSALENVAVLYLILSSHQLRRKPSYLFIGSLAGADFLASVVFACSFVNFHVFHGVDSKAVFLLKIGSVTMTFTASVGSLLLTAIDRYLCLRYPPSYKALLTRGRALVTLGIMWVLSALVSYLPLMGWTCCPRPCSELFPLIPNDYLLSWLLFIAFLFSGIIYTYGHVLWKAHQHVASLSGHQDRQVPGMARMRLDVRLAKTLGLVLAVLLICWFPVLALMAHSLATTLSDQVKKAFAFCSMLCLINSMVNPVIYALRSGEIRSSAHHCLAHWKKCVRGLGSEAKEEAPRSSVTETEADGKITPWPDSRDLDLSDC

SMILES	EC50 [1] [µM]	EC50 [2] [µM]
Cn1nnnc1Cn1nnc2c(N3CC[C@H](O)C3)nc(NC(C)(C)C)nc21 [Example 29, (3S)-1-[5-(tert-Butylamino)-3-[(1-methyltetrazol-5-yl)methyl]triazolo[4,5-d]pyrimidin-7-yl]pyrrolidin-3-ol]	> 10	0.0486
COc1ccc(Cn2nnc3c(N4CC[C@](C)(O)C4)nc(NC(C)(C)C)nc32)cc1 [Example 30, (3S)-1-[5-(tert-Butylamino)-3-[(4-methoxyphenyl)methyl]triazolo[4,5-d]pyrimidin-7-yl]-3-methylpyrrolidin-3-ol]	> 10	0.0899
COc1ccc(Cn2nnc3c(N4CC[C@@](C)(O)C4)nc(NC(C)(C)C)nc32)cc1 [Example 31, (3R)-1-[5-(tert-Butylamino)-3-[(4-methoxyphenyl)methyl]triazolo[4,5-d]pyrimidin-7-yl]-3-methylpyrrolidin-3-ol]	> 10	0.056
C[C@]1(O)CCN(c2nc(N3CCOCC3)nc3c2nnn3Cc2ccccc2Cl)C1 [Example 32, (3S)-1-[3-[(2-Chlorophenyl)methyl]-5-morpholino-triazolo[4,5-d]pyrimidin-7-yl]-3-methyl-pyrrolidin-3-ol]	> 10	0.0096
C[C@]1(O)CCN(c2nc(N3CCOCC3)nc3c2nnn3Cc2ccccc2C(F)(F)F)C1 [Example 33, (3S)-3-Methyl-1-[5-morpholin-4-yl-3-[[2-(trifluoromethyl)phenyl]methyl]triazolo[4,5-d]pyrimidin-7-yl]pyrrolidin-3-ol]	> 10	0.0072
C[C@]1(O)CCN(c2nc(N3CCOCC3)nc3c2nnn3Cc2ncccc2Cl)C1 [Example 34, (3S)-1-[3-[(3-chloropyridin-2-yl)methyl]-5-morpholin-4-yltriazolo[4,5-d]pyrimidin-7-yl]-3-methylpyrrolidin-3-ol]	> 10	0.0453
Cc1noc(Cn2nnc3c(N4CC[C@](C)(O)C4)nc(N4CCOCC4)nc32)n1 [Example 35, (3S)-3-Methyl-1-[3-[(3-methyl-1,2,4-oxadiazol-5-yl)methyl]-5-morpholin-4-yltriazolo[4,5-d]pyrimidin-7-yl]pyrrolidin-3-ol]	> 10	0.0108
C[C@@]1(O)CCN(c2nc(N3CCOCC3)nc3c2nnn3Cc2ccccc2Cl)C1 [Example 36, (3R)-1-[3-[(2-Chlorophenyl)methyl]-5-morpholin-4-yltriazolo[4,5-d]pyrimidin-7-yl]-3-methylpyrrolidin-3-ol]	> 10	0.22
C[C@@]1(O)CCN(c2nc(N3CCOCC3)nc3c2nnn3Cc2ccccc2C(F)(F)F)C1 [Example 37, (3R)-3-Methyl-1-[5-morpholin-4-yl-3-[[2-(trifluoromethyl)phenyl]methyl]triazolo[4,5-d]pyrimidin-7-yl]pyrrolidin-3-ol]	> 10	0.0236
C[C@@]1(O)CCN(c2nc(N3CCOCC3)nc3c2nnn3Cc2ccccc2S(C)(=O)=O)C1 [Example 38, (3R)-3-Methyl-1-[3-[(2-methylsulfonylphenyl)methyl]-5-morpholin-4-yltriazolo[4,5-d]pyrimidin-7-yl]pyrrolidin-3-ol]	> 10	0.312
Cc1noc(Cn2nnc3c(N4CC[C@@](C)(O)C4)nc(N4CCOCC4)nc32)n1 [Example 39, (3R)-3-Methyl-1-[3-[(3-methyl-1,2,4-oxadiazol-5-yl)methyl]-5-morpholin-4-yltriazolo[4,5-d]pyrimidin-7-yl]pyrrolidin-3-ol]	> 10	0.301
FC(F)(F)COc1nc(N2CCC(F)(F)C2)c2nnn(Cc3ccccc3Cl)c2n1 [Example 40, 3-[(2-Chlorophenyl)methyl]-7-(3,3-difluoropyrrolidin-1-yl)-5-(2,2,2-trifluoroethoxy) triazolo[4,5-d]pyrimidine]	> 10	0.0061
CC(Oc1nc(N2CCC(F)(F)C2)c2nnn(Cc3ccccc3Cl)c2n1)C(F)(F)F (centres unmarked) [Example 41, 3-[(2-Chlorophenyl)methyl]-7-(3,3-difluoropyrrolidin-1-yl)-5-(1,1,1-trifluoropropan-2-yloxy)triazolo[4,5-d]pyrimidine]	> 10	0.0085
C[C@H](Oc1nc(N2CCC(F)(F)C2)c2nnn(Cc3ccccc3Cl)c2n1)C(F)(F)F [Example 42, 3-[(2-Chlorophenyl)methyl]-7-(3,3-difluoropyrrolidin-1-yl)-5-[(2S)-1,1,1-trifluoropropan-2-yl]oxytriazolo[4,5-d]pyrimidine]	> 10	0.0033
FC(F)COc1nc(N2CCC(F)(F)C2)c2nnn(Cc3ccccc3Cl)c2n1 [Example 43, 3-[(2-Chlorophenyl)methyl]-5-(2,2-difluoroethoxy)-7-(3,3-difluoropyrrolidin-1-yl)triazolo[4,5-d]pyrimidine]	> 10	0.0264
CCOc1nc(N2CCC(F)(F)C2)c2nnn(Cc3ccccc3Cl)c2n1 [Example 44, 3-[(2-Chlorophenyl)methyl]-7-(3,3-difluoropyrrolidin-1-yl)-5-ethoxytriazolo[4,5-d]pyrimidine]	> 10	0.004
CCCCOc1nc(N2CCC(F)(F)C2)c2nnn(Cc3ccccc3Cl)c2n1 [Example 45, 5-Butoxy-3-[(2-chlorophenyl)methyl]-7-(3,3-difluoropyrrolidin-1-yl)triazolo[4,5-d]pyrimidine]	> 10	0.0012
FCCOc1nc(N2CCC(F)(F)C2)c2nnn(Cc3ccccc3Cl)c2n1 [Example 46, 3-[(2-Chlorophenyl)methyl]-7-(3,3-difluoropyrrolidin-1-yl)-5-(2-fluoroethoxy) triazolo[4,5-d]pyrimidine]	> 10	0.0053
FC1(F)CCN(c2nc(OCC3CC3)nc3c2nnn3Cc2ccccc2Cl)C1 [Example 47, 3-[(2-Chlorophenyl)methyl]-5-(cyclopropylmethoxy)-7-(3,3-difluoropyrrolidin-1-yl)triazolo[4,5-d]pyrimidine]	> 10	0.0036
FC1(F)CCN(c2nc(OC3CCC3)nc3c2nnn3Cc2ccccc2Cl)C1 [Example 48, 3-[(2-Chlorophenyl)methyl]-5-cyclobutyloxy-7-(3,3-difluoropyrrolidin-1-yl)triazolo[4,5-d]pyrimidine]	> 10	0.0017
FC1(F)CCN(c2nc(OC3COC3)nc3c2nnn3Cc2ccccc2Cl)C1 [Example 49, 3-[(2-Chlorophenyl)methyl]-7-(3,3-difluoropyrrolidin-1-yl)-5-(oxetan-3-yloxy)triazolo [4,5-d]pyrimidine]	> 10	0.0219
CC1(COc2nc(N3CCC(F)(F)C3)c3nnn(Cc4ccccc4Cl)c3n2)COC1 [Example 50, 3-[(2-Chlorophenyl)methyl]-7-(3,3-difluoropyrrolidin-1-yl)-5-[(3-methyloxetan-3-yl)methoxy]triazolo[4,5-d]pyrimidine]	> 10	0.0028
C[C@@H](Oc1nc(N2CCC(F)(F)C2)c2nnn(Cc3ccccc3Cl)c2n1)C(F)(F)F [Example 51, 3-[(2-Chlorophenyl)methyl]-7-(3,3-difluoropyrrolidin-1-yl)-5-[(2R)-1,1,1-trifluoropropan-2-yl]oxytriazolo[4,5-d]pyrimidine]	> 10	0.0021
CC(C)(C)COc1nc(N2CCC(F)(F)C2)c2nnn(Cc3ccccc3Cl)c2n1 [Example 52, 3-[(2-Chlorophenyl)methyl]-7-(3,3-difluoropyrrolidin-1-yl)-5-(2,2-dimethylpropoxy) triazolo[4,5-d]pyrimidine]	> 10	0.0008
CC(F)(F)COc1nc(N2CCC(F)(F)C2)c2nnn(Cc3ccccc3Cl)c2n1 [Example 53, 3-[(2-Chlorophenyl)methyl]-5-(2,2-difluoropropoxy)-7-(3,3-difluoropyrrolidin-1-yl)triazolo[4,5-d]pyrimidine]	> 10	0.0055
CC(C)COc1nc(N2CCC(F)(F)C2)c2nnn(Cc3ccccc3Cl)c2n1 [Example 54, 3-[(2-Chlorophenyl)methyl]-7-(3,3-difluoropyrrolidin-1-yl)-5-(2-methylpropoxy) triazolo[4,5-d]pyrimidine]	> 10	0.0012
CC(C)Oc1nc(N2CCC(F)(F)C2)c2nnn(Cc3ccccc3Cl)c2n1 [Example 55, 3-[(2-Chlorophenyl)methyl]-7-(3,3-difluoropyrrolidin-1-yl)-5-propan-2-yloxytriazolo [4,5-d]pyrimidine]	> 10	0.0012
C#CCOc1nc(N2CCC(F)(F)C2)c2nnn(Cc3ccccc3Cl)c2n1 [Example 56, 3-[(2-Chlorophenyl)methyl]-7-(3,3-difluoropyrrolidin-1-yl)-5-prop-2-ynoxytriazolo [4,5-d]pyrimidine]	> 10	0.011
